Laboratory results reported in PubChem BioAssay (NCI).
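A five-concentration, 48-hour dose response in 96-well plates underlies each endpoint, interpolated linearly between surrounding concentrations. TGI denotes the concentration required for complete inhibition of growth.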

Key:
Test in all cases: NCI anticancer screen, dose series, 48 h
ACHN renal = test system: ACHN renal
HL-60(TB) leukemia = test system: HL-60(TB) leukemia
OVCAR-5 ovarian = test system: OVCAR-5 ovarian
KM20L2 colon = test system: KM20L2 colon
LOX IMVI melanoma = test system: LOX IMVI melanoma
A498 renal = test system: A498 renal
RXF 393 renal = test system: RXF 393 renal
A549 NSCLC = test system: A549 NSCLC
RXF-631 renal = test system: RXF-631 renal
SNB-78 CNS = test system: SNB-78 CNS
DMS 273 small cell lung = test system: DMS 273 small cell lung
SF-295 CNS = test system: SF-295 CNS
SK-OV-3 ovarian = test system: SK-OV-3 ovarian
TK-10 renal = test system: TK-10 renal
M19-MEL melanoma = test system: M19-MEL melanoma
OVCAR-8 ovarian = test system: OVCAR-8 ovarian
OVCAR-4 ovarian = test system: OVCAR-4 ovarian
OVCAR-3 ovarian = test system: OVCAR-3 ovarian
RPMI-8226 leukemia = test system: RPMI-8226 leukemia
DLD-1 colon = test system: DLD-1 colon
SK-MEL-5 melanoma = test system: SK-MEL-5 melanoma
HT29 colon = test system: HT29 colon
HOP-62 NSCLC = test system: HOP-62 NSCLC
NCI-H460 lung = test system: NCI-H460 lung
HCT-15 colon = test system: HCT-15 colon
NCI-H226 lung = test system: NCI-H226 lung
XF 498 CNS = test system: XF 498 CNS
SW-620 colon = test system: SW-620 colon
SK-MEL-28 melanoma = test system: SK-MEL-28 melanoma
UO-31 renal = test system: UO-31 renal
COLO 205 colon = test system: COLO 205 colon
NCI-H522 lung = test system: NCI-H522 lung
CAKI-1 renal = test system: CAKI-1 renal
IGROV1 ovarian = test system: IGROV1 ovarian
SNB-19 CNS = test system: SNB-19 CNS
K-562 leukemia = test system: K-562 leukemia
SNB-75 CNS = test system: SNB-75 CNS
SF-539 CNS = test system: SF-539 CNS
CCRF-CEM leukemia = test system: CCRF-CEM leukemia
HOP-92 NSCLC = test system: HOP-92 NSCLC
MOLT-4 leukemia = test system: MOLT-4 leukemia
MALME-3M melanoma = test system: MALME-3M melanoma
EKVX NSCLC = test system: EKVX NSCLC
HCC-2998 colon = test system: HCC-2998 colon
SK-MEL-2 melanoma = test system: SK-MEL-2 melanoma
M14 melanoma = test system: M14 melanoma
UACC-62 melanoma = test system: UACC-62 melanoma
NCI-H23 lung = test system: NCI-H23 lung
786-0 renal = test system: 786-0 renal
U251 CNS = test system: U251 CNS
SR leukemia = test system: SR leukemia
KM12 colon = test system: KM12 colon
LXFL 529 NSCLC = test system: LXFL 529 NSCLC
SF-268 CNS = test system: SF-268 CNS
HCT-116 colon = test system: HCT-116 colon
HOP-18 NSCLC = test system: HOP-18 NSCLC
DMS 114 small cell lung = test system: DMS 114 small cell lung
UACC-257 melanoma = test system: UACC-257 melanoma
SN12C renal = test system: SN12C renal

SMILES: CNC(=O)CN(CC(N)=O)C(=O)NC
- TGI (ACHN renal): > 100 µM
- TGI (HL-60(TB) leukemia): > 100 µM
- TGI (OVCAR-5 ovarian): > 100 µM
- TGI (KM20L2 colon): > 100 µM
- TGI (LOX IMVI melanoma): > 100 µM
- TGI (A498 renal): > 100 µM
- TGI (RXF 393 renal): > 100 µM
- TGI (A549 NSCLC): > 100 µM
- TGI (RXF-631 renal): > 100 µM
- TGI (SNB-78 CNS): > 100 µM
- TGI (DMS 273 small cell lung): > 100 µM
- TGI (SF-295 CNS): > 100 µM
- TGI (SK-OV-3 ovarian): > 100 µM
- TGI (TK-10 renal): > 100 µM
- TGI (M19-MEL melanoma): > 100 µM
- TGI (OVCAR-8 ovarian): > 100 µM
- TGI (OVCAR-4 ovarian): > 100 µM
- TGI (OVCAR-3 ovarian): > 100 µM
- TGI (RPMI-8226 leukemia): > 100 µM
- TGI (DLD-1 colon): > 100 µM
- TGI (SK-MEL-5 melanoma): > 100 µM
- TGI (HT29 colon): > 100 µM
- TGI (HOP-62 NSCLC): > 100 µM
- TGI (NCI-H460 lung): > 100 µM
- TGI (HCT-15 colon): > 100 µM
- TGI (NCI-H226 lung): > 100 µM
- TGI (XF 498 CNS): > 100 µM
- TGI (SW-620 colon): > 100 µM
- TGI (SK-MEL-28 melanoma): > 100 µM
- TGI (UO-31 renal): > 100 µM
- TGI (COLO 205 colon): > 100 µM
- TGI (NCI-H522 lung): > 100 µM
- TGI (CAKI-1 renal): > 100 µM
- TGI (IGROV1 ovarian): > 100 µM
- TGI (SNB-19 CNS): > 100 µM
- TGI (K-562 leukemia): > 100 µM
- TGI (SNB-75 CNS): > 100 µM
- TGI (SF-539 CNS): > 100 µM
- TGI (CCRF-CEM leukemia): > 100 µM
- TGI (HOP-92 NSCLC): > 100 µM
- TGI (MOLT-4 leukemia): > 100 µM
- TGI (MALME-3M melanoma): > 100 µM
- TGI (EKVX NSCLC): > 100 µM
- TGI (HCC-2998 colon): > 100 µM
- TGI (SK-MEL-2 melanoma): > 100 µM
- TGI (M14 melanoma): > 100 µM
- TGI (UACC-62 melanoma): > 100 µM
- TGI (NCI-H23 lung): > 100 µM
- TGI (786-0 renal): > 100 µM
- TGI (U251 CNS): > 100 µM
- TGI (SR leukemia): > 100 µM
- TGI (KM12 colon): > 100 µM
- TGI (LXFL 529 NSCLC): > 100 µM
- TGI (SF-268 CNS): > 100 µM

SMILES: COC(=O)C(=O)C(C(=O)C(=O)Nc1cc([N+](=O)[O-])ccc1[N+](=O)[O-])c1nc2ccc(C(=O)c3ccccc3)cc2[nH]c1=O (stereo not given)
- TGI (ACHN renal): > 100 µM
- TGI (OVCAR-5 ovarian): 70.5 µM
- TGI (LOX IMVI melanoma): > 100 µM
- TGI (A498 renal): 63.4 µM
- TGI (A549 NSCLC): > 100 µM
- TGI (RXF-631 renal): > 100 µM
- TGI (SNB-78 CNS): 58.6 µM
- TGI (DMS 273 small cell lung): > 100 µM
- TGI (SF-295 CNS): > 100 µM
- TGI (SK-OV-3 ovarian): > 100 µM
- TGI (HCT-116 colon): > 100 µM
- TGI (M19-MEL melanoma): > 100 µM
- TGI (OVCAR-8 ovarian): > 100 µM
- TGI (OVCAR-4 ovarian): > 100 µM
- TGI (OVCAR-3 ovarian): > 100 µM
- TGI (HOP-18 NSCLC): 95.1 µM
- TGI (RPMI-8226 leukemia): 62.4 µM
- TGI (DLD-1 colon): > 100 µM
- TGI (SK-MEL-5 melanoma): 45.9 µM
- TGI (HT29 colon): > 100 µM
- TGI (DMS 114 small cell lung): 66.5 µM
- TGI (HOP-62 NSCLC): > 100 µM
- TGI (NCI-H460 lung): > 100 µM
- TGI (HCT-15 colon): > 100 µM
- TGI (NCI-H226 lung): 89 µM
- TGI (XF 498 CNS): 30.9 µM
- TGI (SW-620 colon): > 100 µM
- TGI (UO-31 renal): 67.5 µM
- TGI (COLO 205 colon): > 100 µM
- TGI (NCI-H522 lung): 70.6 µM
- TGI (CAKI-1 renal): > 100 µM
- TGI (IGROV1 ovarian): > 100 µM
- TGI (SNB-19 CNS): > 100 µM
- TGI (K-562 leukemia): 91.3 µM
- TGI (SF-539 CNS): > 100 µM
- TGI (CCRF-CEM leukemia): 83.4 µM
- TGI (MOLT-4 leukemia): 61.5 µM
- TGI (MALME-3M melanoma): > 100 µM
- TGI (EKVX NSCLC): > 100 µM
- TGI (HCC-2998 colon): > 100 µM
- TGI (SK-MEL-2 melanoma): > 100 µM
- TGI (M14 melanoma): 98.8 µM
- TGI (NCI-H23 lung): 70.4 µM
- TGI (786-0 renal): > 100 µM
- TGI (UACC-257 melanoma): > 100 µM
- TGI (U251 CNS): > 100 µM
- TGI (SR leukemia): 60.2 µM
- TGI (KM12 colon): > 100 µM
- TGI (LXFL 529 NSCLC): 57.9 µM
- TGI (SN12C renal): > 100 µM
- TGI (SF-268 CNS): > 100 µM
